Test results published in patent US20230277533A1, “THERAPEUTIC COMBINATIONS COMPRISING UBIQUITIN-SPECIFIC-PROCESSING PROTEASE 1 (USP1) INHIBITORS AND POLY (ADP-RIBOSE) POLYMERASE (PARP) INHIBITORS” (KSQ Therapeutics, Inc., priority 2020, published 2023).
Where two headings read alike, the source gives them in different places.

Tests used:
Assay in all cases: Colony formation (CFU) assay
Type in all cases: cell-based
COV362 = tested on: COV362
Procedure: (§1) In vitro experiments were conducted using the colony formation unit (CFU) assay on various cell lines. The CFU assay involved first establishing what cell plating density enabled the development of clearly interspersed colonies on a six-well plate when left to grow for around 14 days. […] Media was changed on day 8 containing appropriate concentrations of DMSO, USP1 inhibitor, Niraparib, or Olaparib. At or around day 14 when clearly interspersed colonies were visible in the DMSO treated wells, the cells were fixed and stained using 0.1% crystal violet in 10% ethanol for 20 minutes at room temperature. The plates were imaged then the amount of crystal violet stain in each well was quantified by extracting the crystal violet into 10% acetic acid and the absorbance measured at 565 nm.
(§2) IC50 values were calculated by fitting a two-parameter hill equation to the dose-response measurements. Non-linear-least-squares was used to find parameter values that minimize the squared error of the model fit to measured dose response. Non-linear-least-squares estimation was performed using the minpack.lm R package, version 1.2-1. Bliss synergy scores were calculated using the synergyfinder R package version 1.6.1.

CW2 = details: Homo sapiens, CW-2, CW2, colon
Procedure: as §1, §2

HCC1806 = details: Homo sapiens, HCC1806, breast
Procedure: as §1, §2

HCT116 = details: Homo sapiens, HCT-116, HCT116, colon
Procedure: as §1, §2

HPAC = details: Homo sapiens
Procedure: as §1, §2

MDAMB436 = details: Homo sapiens, MDA-MB-436, MDAMB436, breast
Procedure: as §1, §2

MSTO211H = details: Homo sapiens, MSTO-211H
Procedure: as §1, §2

NCIH520 = details: Homo sapiens, NCI-H520, NCIH520, lung
Procedure: as §1, §2

TE11 = details: Homo sapiens, TE-11, TE11, esophagus
Procedure: as §1, §2

UWB1289BRCA1 = details: UWB1289BRCA1, ovary
Procedure: as §1, §2

647V = details: Homo sapiens, bladder
Procedure: as §1, §2

CHAGOK1 = details: Homo sapiens, ChaGo-K-1; CHAGOK1, lung
Procedure: as §1, §2

COV504 = details: COV504, ovary
Procedure: as §1, §2

HBCx2 = details: HBCx2, breast
Procedure: as §1, §2

HCC2108 = details: HCC2108, lung
Procedure: as §1, §2

HPAFII = details: Homo sapiens, HPAF-II, pancreas
Procedure: as §1, §2

HS888T = details: bone
Procedure: as §1, §2

HT1080 = details: Homo sapiens, HT-1080; HT1080, soft tissue
Procedure: as §1, §2

KALS1 = details: Homo sapiens, KALS-1; KALS1, nervous system
Procedure: as §1, §2

KYSE270 = details: Homo sapiens, KYSE-270; KYSE270, esophagus
Procedure: as §1, §2

MDAMB231 = details: Homo sapiens, MDA-MB-231; MDAMB231, breast
Procedure: as §1, §2

PK8 = details: PK8, pancreas
Procedure: as §1, §2

RT11284 = details: Homo sapiens, RT112/84; RT11284, bladder
Procedure: as §1, §2

SKOV3_ATMnull = details: ovary
Procedure: as §1, §2

SNU489 = details: SNU489, nervous system
Procedure: as §1, §2

SNU8 = details: SNU8, ovary
Procedure: as §1, §2

TE9 = details: Homo sapiens, TE-9; TE9, esophagus
Procedure: as §1, §2

UWB1289 = details: for sensitivity to single agents: UWB1.289, BRCA1 mutant ovarian cell line; for IC50: UWB1289, ovary
Procedure: as §1, §2

VMRCRCZ = details: kidney
Procedure: as §1, §2

YD38 = details: YD38, head and neck
Procedure: as §1, §2

GB1 = details: Homo sapiens, GB-1; GB1, nervous system
Procedure: In vitro experiments were conducted using the colony formation unit (CFU) assay on various cell lines. The CFU assay involved first establishing what cell plating density enabled the development of clearly interspersed colonies on a six-well plate when left to grow for around 14 days. Once this density had been identified, cells were plated on day −1 and on day 0, the wells were treated with DMSO or increasing concentrations of USP1 inhibitor or Niraparib (3 nM, 10 nM, 30 nM, 100 nM, and 300 nM), or increasing concentrations of USP1 inhibitor or Olaparib (3 nM, 10 nM, 30 nM, 100 nM, and 300 nM). Media was changed on day 8 containing appropriate concentrations of DMSO, USP1 inhibitor, Niraparib, or Olaparib. […] The plates were imaged then the amount of crystal violet stain in each well was quantified by extracting the crystal violet into 10% acetic acid and the absorbance measured at 565 nm.
IC50 values were calculated by fitting a two-parameter hill equation to the dose-response measurements. Non-linear-least-squares was used to find parameter values that minimize the squared error of the model fit to measured dose response. […] Bliss synergy scores were calculated using the synergyfinder R package version 1.6.1.

| SMILES | IC50 (647V) | IC50 (CHAGOK1) | activity as single agents (COV362; COV362) | IC50 (COV504) | IC50 (CW2) | IC50 (HBCx2) | IC50 (HCC1806) | IC50 (HCC2108) | IC50 (HCT116) | IC50 (HPAC; pancreas) | IC50 (HPAFII) | IC50 (HS888T) | IC50 (HT1080) | IC50 (KALS1) | IC50 (KYSE270) | IC50 (MDAMB231) | IC50 (MDAMB436) | IC50 (MSTO211H; lung) | IC50 (NCIH520) | IC50 (PK8) | other results |
| --- | --- | --- | --- | --- | --- | --- | --- | --- | --- | --- | --- | --- | --- | --- | --- | --- | --- | --- | --- | --- | --- |
| COc1ncnc(C2CC2)c1-c1ncc2cnn(Cc3ccc(-c4nc(C(F)(F)F)cn4C(C)C)cc3)c2n1 [Formula I, 6-(4-cyclopropyl-6-methoxypyrimidin-5-yl)-1-(4-(1-isopropyl-4-(trifluoromethyl)-1H-imidazol-2-yl)benzyl)-1H-pyrazolo[3,4-d]pyrimidine] | – | – | – | – | – | – | – | – | – | – | – | – | – | – | – | – | – | – | – | – | IC50 (COV362; Table 2, COV362, ovary, read-out: IC50): 203 nM; IC50 (CW2; Table 2): 67 nM; IC50 (HCC1806; Table 2): 62 nM; IC50 (HCT116; Table 2): > 316 nM; IC50 (HPAC; Table 2, pancreas): > 316 nM; IC50 (MDAMB436; Table 2): 4.5 nM; IC50 (MSTO211H; Table 2, lung): > 316 nM; IC50 (NCIH520; Table 2): > 316 nM; IC50 (TE11; Table 2): > 316 nM; IC50 (UWB1289BRCA1; Table 2): 113 nM |
| COc1ncnc(C2CC2)c1-c1ncc2cnn(Cc3ccc(-c4nc(C(F)(F)F)cn4C)cc3)c2n1 [Formula II, 6-(4-cyclopropyl-6-methoxypyrimidin-5-yl)-1-(4-(1-methyl-4-(trifluoromethyl)-1H-imidazol-2-yl)benzyl)-1H-pyrazolo[3,4-d]pyrimidine] | 33.9 nM | > 300 nM | modest activity | 6.63 nM | > 300 nM | > 300 nM | 114 nM | > 300 nM | 110 nM | > 300 nM | > 300 nM | > 300 nM | > 300 nM | > 300 nM | > 300 nM | > 300 nM | 6.46 nM | > 300 nM | > 300 nM | > 300 nM | IC50 (COV362; COV362): > 300 nM; IC50 (RT11284): > 300 nM; IC50 (SKOV3_ATMnull): > 300 nM; IC50 (SNU489): > 300 nM; IC50 (SNU8): > 300 nM; IC50 (TE11): 134 nM; IC50 (TE9): > 300 nM; IC50 (UWB1289BRCA1): 139 nM; sensitivity to single agents (UWB1289): sensitive; IC50 (UWB1289): 22.3 nM; IC50 (VMRCRCZ): > 300 nM; IC50 (YD38): > 300 nM; IC50 (GB1): > 300 nM |
| NC(=O)c1cccc2cn(-c3ccc([C@@H]4CCCNC4)cc3)nc12 [Niraparib, niraparib, reference compound] | 96.7 nM | > 300 nM | modest activity | 4.17 nM | > 300 nM | > 300 nM | 62.9 nM | 95.5 nM | > 300 nM | > 300 nM | > 300 nM | > 300 nM | > 300 nM | > 300 nM | 16.9 nM | > 300 nM | 4.73 nM | > 300 nM | > 300 nM | > 300 nM | IC50 (COV362; COV362, ovary, read-out: IC50): 177 nM; IC50 (RT11284): > 300 nM; IC50 (SKOV3_ATMnull): > 300 nM; IC50 (SNU489): > 300 nM; IC50 (SNU8): > 300 nM; IC50 (TE11): 176 nM; IC50 (TE9): > 300 nM; IC50 (UWB1289BRCA1): 186 nM; sensitivity to single agents (UWB1289): sensitive; IC50 (UWB1289): 28.4 nM; IC50 (VMRCRCZ): > 300 nM; IC50 (YD38): > 300 nM; IC50 (GB1): > 300 nM |
